The target in test [1] is T1, SFRP-1 (Homo sapiens, UniProt Q8N474).
T1 sequence (Q8N474 32-314): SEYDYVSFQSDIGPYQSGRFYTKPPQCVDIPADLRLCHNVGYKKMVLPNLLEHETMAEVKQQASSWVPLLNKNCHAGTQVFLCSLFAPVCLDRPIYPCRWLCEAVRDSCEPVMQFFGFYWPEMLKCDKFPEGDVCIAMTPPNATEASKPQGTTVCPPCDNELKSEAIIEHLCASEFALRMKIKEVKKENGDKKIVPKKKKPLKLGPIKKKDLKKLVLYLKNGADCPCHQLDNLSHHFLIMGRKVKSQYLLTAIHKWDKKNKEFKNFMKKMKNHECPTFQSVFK
In words: Fluorescence polarization binding assay (competitive displacement of a probe compound from SFRP-1).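 Note: test compound competes with a fluorescent probe held by SFRP-1, seen as a drop in probe anisotropy after incubation in darkness, with anisotropy as function of rising compound dose.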 As to conditions: fluorescence anisotropy, 45 nM SFRP-1, 20 nM probe.

The target in test [2] is T1, SFRP-1. As to the kind of experiment: Cell-based assay for in vitro measurement of SFRP-1/SARP2 antagonist activity (U2OS cells co-transfected with 16x TCF-tk-Luciferase reporter, Wnt and hSFRP-1).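 For all read-outs here: U2OS cells co-transfected with a TCF-tk luciferase reporter, a Wnt vector, hSFRP-1 or empty vector and CMV-βgal, luciferase luminescence read in cell lysates alongside βgal activity.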 As to conditions: for fold induction at 10 µM: U2OS.
Where [3] appears, read: read-out: Fold Induction with SFRP-1, U2OS cells, single dose 10 μM, luciferase reporter, fold induction over SFRP-1 control.
Where [4] appears, read: read-out: Fold Induction with SFRP-1.

Like-named read-outs stand apart in the source and are kept apart here.

With `CN(CCNS(=O)(=O)c1cc(S(=O)(=O)c2ccccc2)ccc1C(F)(F)F)C(=O)OCC(C)(C)C` [Example 867, 2,2-dimethylpropyl methyl[2-({[5-(phenylsulfonyl)-2-(trifluoromethyl)phenyl]sulfonyl}amino)ethyl]carbamate], the half-inhibitory concentration (IC50) at SFRP-1 [1] was 800 nM. Also, on SFRP-1 [2] (setting [3]), the fold induction at 10 µM is 2.8.

The compound `O=S(=O)(NCC1(O)CCCCC1)c1cc(S(=O)(=O)c2ccccc2)ccc1C(F)(F)F` [Example 868, N-[(1-hydroxycyclohexyl)methyl]-5-(phenylsulfonyl)-2-(trifluoromethyl)benzenesulfonamide] showed a 50% inhibitory concentration (IC50) on SFRP-1 [1] of 2500 nM. On SFRP-1 [2], this compound registered an EC50 of 2130 nM. Moreover, at SFRP-1 [2] (setting [3]), the fold induction at 10 µM is 2.4.

At SFRP-1 [1], `O=S(=O)(NC1CCNCC1)c1cc(S(=O)(=O)c2ccccc2NCCO)ccc1C(F)(F)F` [Example 869, 5-({2-[(2-hydroxyethyl)amino]phenyl}sulfonyl)-N-piperidin-4-yl-2-(trifluoromethyl)benzenesulfonamide] came in with a half-inhibitory concentration (IC50) of 1200 nM. The response on SFRP-1 [2] was half-maximal at 1760 nM (EC50). Moreover, on SFRP-1 [2] (setting [3]), the fold induction at 10 µM was determined as 3.5.

Take `CC(C)COC(=O)N(C)CCNS(=O)(=O)c1cc(S(=O)(=O)c2ccccc2)ccc1C(F)(F)F` [Example 870, isobutyl methyl[2-({[5-(phenylsulfonyl)-2-(trifluoromethyl)phenyl]sulfonyl}amino)ethyl]carbamate]: the half-inhibitory concentration (IC50) at SFRP-1 [1] is 800 nM. For the same compound, at SFRP-1 [2] (setting [3]), the fold induction at 10 µM turned out to be 2.5.

As to `CN(CCNS(=O)(=O)c1cc(S(=O)(=O)c2ccccc2)ccc1C(F)(F)F)C(=O)Oc1cccc(C(F)(F)F)c1` [Example 871, 3-(trifluoromethyl)phenyl methyl[2-({[5-(phenylsulfonyl)-2-(trifluoromethyl)phenyl]sulfonyl}amino)ethyl]carbamate], the IC50 at SFRP-1 [1] worked out at 600 nM. On SFRP-1 [2], this compound returned an EC50 of 3810 nM. For the same compound, the fold induction at 10 µM at SFRP-1 [2] (setting [4]) turned out to be 2.

On SFRP-1 [1], `CN(CCNS(=O)(=O)c1cc(S(=O)(=O)c2ccccc2)ccc1C(F)(F)F)C(=O)Oc1ccc(F)cc1` [Example 872, 4-fluorophenyl methyl[2-({[5-(phenylsulfonyl)-2-(trifluoromethyl)phenyl]sulfonyl]amino)ethyl]carbamate] had an IC50 of 600 nM. At SFRP-1 [2], this compound returned an EC50 of 1950 nM. In addition, the fold induction at 10 µM on SFRP-1 [2] (setting [4]) is 3.1.

On to `CN(CCNS(=O)(=O)c1cc(S(=O)(=O)c2ccccc2)ccc1C(F)(F)F)C(=O)Oc1ccc(Br)cc1` [Example 873, 4-bromophenyl methyl[2-({[5-(phenylsulfonyl)-2-(trifluoromethyl)phenyl]sulfonyl}amino)ethyl]carbamate], for which the IC50 on SFRP-1 [1] was found to be 1600 nM. Besides, the fold induction at 10 µM on SFRP-1 [2] (setting [4]) was found to be 2.1.

The compound `CCCc1ccc(S(=O)(=O)c2ccccc2)cc1S(=O)(=O)NCCc1cccnc1` [Example 876, 5-(Phenylsulfonyl)-2-propyl-N-(2-pyridin-3-ylethyl)benzenesulfonamide] had a half-inhibitory concentration (IC50) on SFRP-1 [1] of 800 nM. Moreover, the midpoint of the response on SFRP-1 [2], the EC50, lay at 1360 nM. Further, the fold induction at 10 µM at SFRP-1 [2] (setting [3]) was determined as 3.

Turning to `O=C(O)c1ccc(CCNS(=O)(=O)c2cc(S(=O)(=O)c3ccccc3)ccc2C(F)(F)F)cc1` [Example 877, 4-[2-({[5-(phenylsulfonyl)-2-(trifluoromethyl)phenyl]sulfonyl}amino)ethyl]benzoic acid], the IC50 at SFRP-1 [1] came to 30 nM. On SFRP-1 [2], the concentration giving a half-maximal response (EC50) stood at 257 nM. Also, the fold induction at 10 µM on SFRP-1 [2] (setting [3]) came to 3.9.

Consider `CN(CCNS(=O)(=O)c1cc(S(=O)(=O)c2ccccc2)ccc1C(F)(F)F)C(=O)NC1CCNCC1` [Example 881, N-(2-{methyl[(piperidin-4-ylamino)carbonyl]amino}ethyl)-5-(phenylsulfonyl)-2-(trifluoromethyl)benzenesulfonamide], for which the IC50 at SFRP-1 [1] is 280 nM. On SFRP-1 [2], this compound gave an EC50 of 850 nM. In addition, at SFRP-1 [2] (setting [3]), the fold induction at 10 µM stood at 3.4.

`CCOC(=O)CNC(=O)N(C)CCNS(=O)(=O)c1cc(S(=O)(=O)c2ccccc2)ccc1C(F)(F)F` [Example 882, ethyl N-({methyl[2-({[5-(phenylsulfonyl)-2-(trifluoromethyl)phenyl]sulfonyl}amino)ethyl]amino}carbonyl)glycinate] displayed a concentration for half-maximal inhibition (IC50) on SFRP-1 [1] of 80 nM. Moreover, at SFRP-1 [2], the half-maximal effective concentration (EC50) was 627 nM. In addition, the fold induction at 10 µM on SFRP-1 [2] (setting [3]) stood at 3.4.

`CN(CCNS(=O)(=O)c1cc(S(=O)(=O)c2ccccc2)ccc1C(F)(F)F)S(=O)(=O)c1cccc(C(=O)O)c1` [Example 883, 3-({methyl[2-({[5-(phenylsulfonyl)-2-(trifluoromethyl)phenyl]sulfonyl}amino)ethyl]amino}sulfonyl)benzoic acid]: the IC50 on SFRP-1 [1] turned out to be 400 nM. In addition, the response at SFRP-1 [2] was half-maximal at 2570 nM (EC50). For the same compound, the fold induction at 10 µM at SFRP-1 [2] (setting [3]) came to 2.7.

The compound `CC(C)c1ccc(S(=O)(=O)c2ccc(F)cc2)cc1S(=O)(=O)NCCC1CCCNC1` (stereo not shown) [Example 884, 5-[(4-fluorophenyl)sulfonyl]-2-isopropyl-N-(2-piperidin-3-ylethyl)benzenesulfonamide] gave an IC50 at SFRP-1 [1] of 1600 nM. In addition, the EC50 on SFRP-1 [2] turned out to be 3400 nM. For the same compound, on SFRP-1 [2] (setting [3]), the fold induction at 10 µM came out at 2.7.

Compound `O=S(=O)(NC1CCN(Cc2nn[nH]n2)CC1)c1cc(S(=O)(=O)c2ccccc2)ccc1C(F)(F)F` [Example 885, 5-(phenylsulfonyl)-N-[1-(2H-tetrazol-5-ylmethyl)piperidin-4-yl]-2-(trifluoromethyl)benzenesulfonamide] came in with an IC50 at SFRP-1 [1] of 400 nM. At SFRP-1 [2], this compound returned a concentration for a half-maximal effect (EC50) of 2090 nM. Besides, the fold induction at 10 µM on SFRP-1 [2] (setting [3]) is 2.7.

On SFRP-1 [1], `O=C(O)CCC(=O)N1CCC(NS(=O)(=O)c2cc(S(=O)(=O)c3ccccc3)ccc2C(F)(F)F)C1` (stereo not shown) [Example 886, 4-oxo-4-[3-({[5-(phenylsulfonyl)-2-(trifluoromethyl)phenyl]sulfonyl}amino)pyrrolidin-1-yl]butanoic acid] returned an IC50 of 150 nM. Moreover, at SFRP-1 [2], a half-maximal effect (EC50) was put at 1330 nM. On SFRP-1 [2] (setting [3]), the fold induction at 10 µM is 2.7.

For the compound `CN(CCNS(=O)(=O)c1cc(S(=O)(=O)c2ccccc2)ccc1C(F)(F)F)C(=O)N1CCN(C(=O)OC(C)(C)C)CC1` [Example 887, tert-butyl 4-({methyl[2-({[5-(phenylsulfonyl)-2-(trifluoromethyl)phenyl]sulfonyl}amino)ethyl]amino}carbonyl)piperazine-1-carboxylate], on SFRP-1 [1], the half-inhibitory concentration (IC50) amounted to 3000 nM. Moreover, the EC50 at SFRP-1 [2] was found to be 1770 nM. On SFRP-1 [2] (setting [3]), the fold induction at 10 µM turned out to be 2.3.

As for `CN(CCNS(=O)(=O)c1cc(S(=O)(=O)c2ccccc2)ccc1C(F)(F)F)C(=O)NCC(=O)O` [Example 888, N-({methyl[2-({[5-(phenylsulfonyl)-2-(trifluoromethyl)phenyl]sulfonyl}amino)ethyl]amino}carbonyl)glycine], the half-inhibitory concentration (IC50) on SFRP-1 [1] was determined as 900 nM. At SFRP-1 [2], this compound had a half-maximal effective concentration (EC50) of 1770 nM. The fold induction at 10 µM on SFRP-1 [2] (setting [3]) amounted to 2.1.

Regarding `O=C(O)CCNS(=O)(=O)c1cc(S(=O)(=O)c2ccccc2)ccc1C(F)(F)F` [Example 889, N-{[5-(phenylsulfonyl)-2-(trifluoromethyl)phenyl]sulfonyl}-[…]-alanine], the concentration for half-maximal inhibition (IC50) on SFRP-1 [1] was found to be 4000 nM. Moreover, at SFRP-1 [2] (setting [3]), the fold induction at 10 µM came to 1.3.

On to `O=C(O)CCCNS(=O)(=O)c1cc(S(=O)(=O)c2ccccc2)ccc1C(F)(F)F` [Example 893, 4-({[5-(phenylsulfonyl)-2-(trifluoromethyl)phenyl]sulfonyl}amino)butanoic acid], for which, at SFRP-1 [1], the IC50 came to 700 nM. The fold induction at 10 µM on SFRP-1 [2] (setting [3]) amounted to 1.8.

`O=C(O)CCCC(=O)N1CCC(NS(=O)(=O)c2cc(S(=O)(=O)c3ccccc3)ccc2C(F)(F)F)C1` (stereo not shown) [Example 895, 5-oxo-5-[3-({[5-(phenylsulfonyl)-2-(trifluoromethyl)phenyl]sulfonyl}amino)pyrrolidin-1-yl]pentanoic acid]: the IC50 on SFRP-1 [1] worked out at 190 nM. In addition, at SFRP-1 [2], the response was half-maximal at 871 nM (EC50). In addition, the fold induction at 10 µM at SFRP-1 [2] (setting [3]) was 2.9.

`CC(C)(C)OC(=O)N1CCC(CNS(=O)(=O)c2cc(S(=O)(=O)c3ccccc3)ccc2C(F)(F)F)CC1` [Example 896, tert-butyl 4-[({[5-(phenylsulfonyl)-2-(trifluoromethyl)phenyl]sulfonyl}amino)methyl]piperidine-1-carboxylate] returned a concentration for half-maximal inhibition (IC50) on SFRP-1 [1] of 300 nM. In addition, the midpoint of the response on SFRP-1 [2], the EC50, lay at 675 nM. Further, the fold induction at 10 µM on SFRP-1 [2] (setting [3]) turned out to be 2.9.

As for `CN(CCNS(=O)(=O)c1cc(S(=O)(=O)c2ccccc2)ccc1C(F)(F)F)C(=O)CCC(=O)O` [Example 897, 4-{methyl[2-({[5-(phenylsulfonyl)-2-(trifluoromethyl)phenyl]sulfonyl}amino)ethyl]amino}-4-oxobutanoic acid], the 50% inhibitory concentration (IC50) at SFRP-1 [1] is 500 nM. The compound also came in with a concentration giving a half-maximal response (EC50) at SFRP-1 [2] of 1360 nM. Also, the fold induction at 10 µM at SFRP-1 [2] (setting [3]) turned out to be 2.7.

On SFRP-1 [1], `CN(CCNS(=O)(=O)c1cc(S(=O)(=O)c2ccccc2)ccc1C(F)(F)F)C(=O)N1CCNCC1` [Example 898, N-methyl-N-[2-({[5-(phenylsulfonyl)-2-(trifluoromethyl)phenyl]sulfonyl}amino)ethyl]piperazine-1-carboxamide] displayed a 50% inhibitory concentration (IC50) of 1000 nM. The same compound displayed an EC50 on SFRP-1 [2] of 1930 nM. Also, the fold induction at 10 µM at SFRP-1 [2] (setting [3]) turned out to be 3.1.

On SFRP-1 [1], `O=S(=O)(NCC1CCNCC1)c1cc(S(=O)(=O)c2ccccc2)ccc1C(F)(F)F` [Example 899, 5-(phenylsulfonyl)-N-(piperidin-4-ylmethyl)-2-(trifluoromethyl)benzenesulfonamide] showed an IC50 of 300 nM. The compound further showed a concentration giving a half-maximal response (EC50) at SFRP-1 [2] of 894 nM. In addition, the fold induction at 10 µM at SFRP-1 [2] (setting [3]) is 4.2.

(Values after patent publication US20060276464A1, “Diarylsulfone sulfonamides and use thereof” (Wyeth, priority 2005, published 2006).)
